Consider 8 molecules from patent US20160095843A1, “PYRAZOLOPYRROLIDINE DERIVATIVES AND THEIR USE IN THE TREATMENT OF DISEASE” (NOVARTIS AG, priority 2013, published 2016).

SMILES strings stand for the structures. Like-named read-outs stand apart in the source and are kept apart here.

The subject of one assay is THP-1 cells. Nature of the assay: Cell growth inhibition assay (CellTiter-Glo), THP-1. It is filed as cell-based. As to conditions: Homo sapiens. The method, then:
(§1) Cell Growth Inhibition Assay
(§2) The human leukemia cell lines MV-4-11, THP-1 and K-562 were employed to characterize the effect of BET inhibitors on cellular proliferation and viability. Cells were obtained from the American Type Culture Collection (ATCC) and cultured at 37° C. in a humidified 5% CO2 incubator in the following media: MV-4-11: DMEM high glucose (Animed #1-26F01-I), 10% FCS (Animed #2-01F26-I), 4 mM L-Glutamine (Animed #5-10K50), 1 mM Sodium Pyruvate (Animed # G03625P), 1× Penicillin-Streptomycin (Animed # F12478P); K-562: Iscove's MEM (Animed #1-28F16-I), 10% FCS (Animed #2-01F26-I), 4 mM L-Glutamine (Animed #5-10K50), 1× Penicillin-Streptomycin (Animed # F12478P); THP-1: RPMI-1640 (Animed #1-41F01-I), 10% FCS (Animed #2-01F26-I), 2 mM L-Glutamine (Animed #5-10K50), 10 mM HEPES (Animed #5-31F100), 1 mM Sodium Pyruvate (Animed # G03625P), 1× Penicillin-Streptomycin (Animed # F12478P). The AML lines MV-4-11 and THP-1 are very sensitive to BET inhibitors and show massive cell death upon BET inhibition (Zuber et al., Nature, 478 (2011), 524-8). Compound-mediated suppression of cell proliferation/viability was assessed by quantification of cellular ATP levels using the CellTiter-Glo (CTG) reagent (Promega). Briefly, cells were seeded in 20 μl fresh medium into 384-well plates, followed by addition of 5 μL medium containing compound dilutions at 5-fold their final intended concentration. Dose-response effects were assessed by 3-fold serial dilutions of the test compound, starting at 10 μM. Following incubation of the cells for 4 days at 37° C. and 5% CO2, the effect of inhibitors on cell viability was quantified following addition of 20 μl CTG and luminescence quantification (integration time: 100 ms) as per vendor manual, using a correspondingly equipped Tecan M200 multi-mode platereader (TECAN, Switzerland). For data analysis, the assay background value determined in wells containing medium, but no cells, was subtracted from all data points. To enable differentiation of cytotoxic from cytostatic compounds, the number of viable cells is assessed relative to that observed at the time of compound addition using a separate cell plate (day 0). The effect of a particular test compound concentration on cell proliferation/viability is expressed as percentage of the background- and day 0-corrected luminescence reading obtained for cells treated with vehicle only (DMSO, 0.1% final concentration), which is set as 100%, whereas that luminescence reading for wells containing medium is set as −100%. Compound concentrations leading to half-maximal (1050) and total growth inhibition (TGI) were determined using standard four parameter curve fitting.
(In ATP-based viability assays light output follows the ATP content of the culture.)

In another assay the test system is K-562 cells. In words: Cell growth inhibition assay (CellTiter-Glo), K-562. The class given is cell-based, human. The method, then: as §1, §2
Another assay deals with MV-4-11 cells. Nature of the assay: Cell growth inhibition assay (CellTiter-Glo), MV-4-11. It is filed as cell-based. The note with it: Homo sapiens, MV4-11. The method, then:
as §1, §2

As for `COc1ncc(-n2nc(C)c3c2C(=O)N(c2cc(C)c(=O)n(C)c2)C3c2ccc(Cl)cc2)c(OC)n1` (racemic) [Example 52, 4-(4-chlorophenyl)-1-(2,4-dimethoxypyrimidin-5-yl)-5-(1,5-dimethyl-6-oxo-1,6-dihydropyridin-3-yl)-3-methyl-4,5-dihydropyrrolo[3,4-c]pyrazol-6(1H)-one], the GI50 – broadly, the concentration giving 50% growth inhibition – with THP-1 cells was determined as 198 nM; in the assay with K-562 cells (Homo sapiens, K562) it was 424 nM; in the assay with MV-4-11 cells, 97.4 nM. Also, the IC (TGI) in the assay with THP-1 cells is 345 nM; in the assay on K-562 cells (Homo sapiens, K562), above 10000 nM; in the assay on MV-4-11 cells, 156 nM.

For the molecule `Cc1cc(N2C(=O)c3nn(C4CNC4)c(C)c3C2c2ccc(Cl)cc2)cn2c(C)nnc12` (centres unmarked) [Example 152, 2-(azetidin-3-yl)-4-(4-chlorophenyl)-5-(3,8-dimethyl-[1,2,4]triazolo[4,3-a]pyridin-6-yl)-3-methyl-4,5-dihydropyrrolo[3,4-c]pyrazol-6(2H)-one], the GI50 was 2600 nM in the assay on THP-1 cells; 4330 nM in the assay with K-562 cells (Homo sapiens, K562); 438 nM in the assay on MV-4-11 cells.

In the case of `COc1ncc(-n2nc3c(c2C(C)C)C(c2ccc(Cl)cc2)N(c2cc(C)c4onc(C)c4c2)C3=O)c(OC)n1` (centres unmarked) [Example 46, 4-(4-chlorophenyl)-2-(2,4-dimethoxypyrimidin-5-yl)-5-(3,7-dimethylbenzo[d]-isoxazol-5-yl)-3-isopropyl-4,5-dihydropyrrolo-[3,4-c]pyrazol-6(2H)-one], the GI50 with THP-1 cells came out at 177 nM; with K-562 cells (Homo sapiens, K562), 370 nM; with MV-4-11 cells, 115 nM. In addition, in the assay on K-562 cells, the IC (TGI) is above 10000 nM.

For `CCc1nn(C2CC2)c2c1C(c1ccc(Cl)cc1)N(c1cc(C)c3nnc(C)n3c1)C2=O` (centres unmarked) [Example 70, 4-(4-chlorophenyl)-1-cyclopropyl-5-(3,8-dimethyl-[1,2,4]triazolo[4,3-a]pyridin-6-yl)-3-ethyl-4,5-dihydropyrrolo-[3,4-c]pyrazol-6(1H)-one], the GI50 is 12.2 nM with THP-1 cells; 60.8 nM with K-562 cells (Homo sapiens, K562); 9.02 nM in the assay with MV-4-11 cells.

As to `CCn1nc2c(c1C)C(c1ccc(Cl)cc1)N(c1cc(C)c3nnc(C)n3c1)C2=O` (centres unmarked) [Example 115, 4-(4-chlorophenyl)-5-(3,8-dimethyl-[1,2,4]triazolo[4,3-a]pyridin-6-yl)-2-ethyl-3-methyl-4,5-dihydropyrrolo-[3,4-c]pyrazol-6(2H)-one], the GI50 in the assay with THP-1 cells was found to be 34.8 nM; in the assay with K-562 cells (Homo sapiens, K562), 142 nM; in the assay on MV-4-11 cells, 22.4 nM.

Consider `Cc1n[nH]c2c1C(c1ccc(F)cc1F)N(c1cc(C)c3nnc(C)n3c1)C2=O` (centres unmarked) [Example 172, 4-(2,4-difluorophenyl)-5-(3,8-dimethyl-[1,2,4]triazolo[4,3-a]pyridin-6-yl)-3-methyl-4,5-dihydropyrrolo[3,4-c]pyrazol-6(2H)-one], for which the GI50 in the assay on THP-1 cells turned out to be 254 nM; in the assay with K-562 cells (Homo sapiens, K562) it was 1080 nM; in the assay on MV-4-11 cells it was 176 nM.

Take `Cc1c2c(nn1C(C)C)C(=O)N(c1cc(Cl)c(=O)n(C)c1)C2c1ccc(Cl)cc1` (centres unmarked) [Example 65, 5-(5-chloro-1-methyl-6-oxo-1,6-dihydropyridin-3-yl)-4-(4-chlorophenyl)-2-isopropyl-3-methyl-4,5-dihydropyrrolo-[3,4-c]pyrazol-6(2H)-one]: the concentration for 50% growth inhibition (GI50) in the assay on THP-1 cells was determined as 121 nM; with K-562 cells (Homo sapiens, K562) it was 554 nM; with MV-4-11 cells, 67.5 nM.

Regarding `Cc1nn(C(C)C)c2c1C(c1ccc(Cl)cc1)N(c1cc(C)c(=O)n(C)c1)C2=O` (centres unmarked) [Example 63, 4-(4-chlorophenyl)-5-(1,5-dimethyl-6-oxo-1,6-dihydropyridin-3-yl)-1-isopropyl-3-methyl-4,5-dihydropyrrolo[3,4-c]pyrazol-6(1H)-one], the GI50 was determined as 61.9 nM in the assay with THP-1 cells; 314 nM with K-562 cells (Homo sapiens, K562); 25.8 nM in the assay with MV-4-11 cells. In the assay on K-562 cells, the IC (TGI) is above 10000 nM.
